The values that follow come from PubChem BioAssay (NCI).

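Tested at 5 concentrations; 48 h exposure; 96-well plates; endpoints linearly interpolated, else capped at highest concentration. At the TGI there is no net growth.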

Among the test systems are 786-0 renal; SF-295 CNS; T-47D breast; SN12C renal; KM12 colon; SF-268 CNS; IGROV1 ovarian; BT-549 breast; UACC-257 melanoma; SNB-19 CNS; HCT-116 colon; K-562 leukemia; ACHN renal; CAKI-1 renal; SR leukemia; NCI-H23 lung; UACC-62 melanoma.
Holding throughout (test): growth of human tumour cells (NCI), 48 h

On to `CC1=NN(c2nc(N)nc(C(C)Sc3cc(Cl)c(C)cc3S(N)(=O)=O)n2)C(C)(C)C1` (centres undefined), for which the TGI in the assay on 786-0 renal, with SF-295 CNS, in the assay on T-47D breast, in the assay on SN12C renal, in the assay with KM12 colon and in the assay on SF-268 CNS was > 10 µM throughout. In addition, the TGI in the assay on IGROV1 ovarian, in the assay on BT-549 breast, in the assay with UACC-257 melanoma, in the assay on SNB-19 CNS, in the assay on HCT-116 colon and in the assay on K-562 leukemia was > 10 µM in each case. The TGI with ACHN renal, with CAKI-1 renal, in the assay on SR leukemia and with NCI-H23 lung was > 10 µM in each case.
On to `CN(C)C(=S)N/N=C\C(=N/NC(=S)N(C)C)c1ccccc1`, for which the TGI in the assay on 786-0 renal is > 100 µM; in the assay with SF-295 CNS, > 100 µM; with T-47D breast it was 4.77 µM; in the assay with SN12C renal, > 100 µM; in the assay on KM12 colon, > 100 µM; in the assay on SF-268 CNS, > 72.3 µM. In addition, the TGI is > 48.2 µM in the assay with IGROV1 ovarian; > 100 µM with BT-549 breast; > 100 µM in the assay with UACC-257 melanoma; > 100 µM with SNB-19 CNS; > 46.5 µM in the assay with HCT-116 colon; > 100 µM in the assay on UACC-62 melanoma. The TGI was > 100 µM in the assay on K-562 leukemia, > 100 µM with ACHN renal, > 100 µM in the assay with CAKI-1 renal and > 45.4 µM with NCI-H23 lung.
Turning to `COC(=O)[C@@]12CC[C@]1(C(=O)OC)C1C(C)=CC(=O)O[C@@]12C` (some centres undefined), the TGI with 786-0 renal, with SF-295 CNS, in the assay with T-47D breast, in the assay on SN12C renal, in the assay on KM12 colon and in the assay with SF-268 CNS was > 100 µM each time. Also, the TGI with IGROV1 ovarian, in the assay with BT-549 breast, in the assay on UACC-257 melanoma, in the assay on SNB-19 CNS, in the assay with HCT-116 colon and in the assay with UACC-62 melanoma was > 100 µM throughout. Besides, the TGI in the assay on K-562 leukemia, with ACHN renal, with SR leukemia and in the assay with NCI-H23 lung was > 100 µM each time.
Take `CC1=Nc2nc3ccccc3n2C(C)(C)C1`: the TGI with 786-0 renal, in the assay with SF-295 CNS, in the assay on T-47D breast, in the assay with KM12 colon, in the assay with SF-268 CNS and in the assay with IGROV1 ovarian was > 100 µM each time. The TGI in the assay on BT-549 breast, with UACC-257 melanoma, with SNB-19 CNS, in the assay on HCT-116 colon, in the assay with UACC-62 melanoma and in the assay with K-562 leukemia was > 100 µM throughout. Also, the TGI in the assay on ACHN renal, in the assay with CAKI-1 renal, with SR leukemia and in the assay with NCI-H23 lung was > 100 µM each time.
Consider `CCOC(=O)C1(Cc2ccccc2)Cc2cc3c(cc2C1=O)CCC3` (centres undefined), for which the TGI in the assay with 786-0 renal, with SF-295 CNS, in the assay with T-47D breast, with SN12C renal, with KM12 colon and in the assay on SF-268 CNS was > 100 µM each time. Also, the TGI in the assay on IGROV1 ovarian, with BT-549 breast, in the assay with UACC-257 melanoma, in the assay on SNB-19 CNS, in the assay on HCT-116 colon and in the assay on UACC-62 melanoma was > 100 µM in each case. Moreover, the TGI in the assay with K-562 leukemia, with ACHN renal, with SR leukemia and in the assay with NCI-H23 lung was > 100 µM throughout.
`COc1cc2c(c(N)c1OC)C(=O)/C(=C/c1cc(C)c(O)c(C)c1)C2`: the TGI in the assay with 786-0 renal was > 100 µM; in the assay on SF-295 CNS it was > 55.6 µM; in the assay on T-47D breast, > 100 µM; with SN12C renal it was > 100 µM; with KM12 colon it was 1.82 µM; with SF-268 CNS, > 100 µM. The TGI was > 100 µM in the assay with IGROV1 ovarian; > 100 µM in the assay on BT-549 breast; > 100 µM in the assay with UACC-257 melanoma; > 100 µM in the assay on SNB-19 CNS; 2.24 µM in the assay on HCT-116 colon; > 100 µM in the assay with UACC-62 melanoma. The TGI in the assay with ACHN renal is > 100 µM; in the assay with CAKI-1 renal, > 100 µM; in the assay with SR leukemia, > 100 µM; with NCI-H23 lung it was > 46.6 µM.
Consider `COC(=O)c1ccccc1/C=C1\Cc2cc3c(cc2C1=O)CCC3`, for which the TGI with 786-0 renal, in the assay with SF-295 CNS, in the assay with T-47D breast, in the assay with SN12C renal, in the assay on KM12 colon and in the assay on SF-268 CNS was > 100 µM in each case. The TGI with IGROV1 ovarian, in the assay on BT-549 breast, in the assay on UACC-257 melanoma, in the assay with SNB-19 CNS, in the assay with HCT-116 colon and in the assay on UACC-62 melanoma was > 100 µM each time. Also, the TGI in the assay on ACHN renal, in the assay with CAKI-1 renal, with SR leukemia and in the assay on NCI-H23 lung was > 100 µM in each case.
For `COc1cc(CNc2nc3ccccc3nc2-c2cccs2)cc(OC)c1OC`, the TGI in the assay with 786-0 renal was > 100 µM; in the assay on SF-295 CNS, > 100 µM; with T-47D breast it was > 100 µM; in the assay on SN12C renal, 37.8 µM; in the assay on KM12 colon it was > 100 µM; in the assay on SF-268 CNS, > 100 µM. Also, the TGI in the assay on IGROV1 ovarian is > 100 µM; in the assay with BT-549 breast, 12.9 µM; in the assay on UACC-257 melanoma, > 100 µM; in the assay with HCT-116 colon it was > 100 µM; in the assay on UACC-62 melanoma, 62.5 µM; in the assay on K-562 leukemia, 97.7 µM. For the same compound, the TGI is 29.3 µM with ACHN renal, 28.4 µM in the assay with CAKI-1 renal, > 100 µM in the assay with SR leukemia and 65.5 µM with NCI-H23 lung.
Consider `COCC[N+](CCNC(=O)c1cccc2c(N)c3cccc(C)c3nc12)(CCOC)Cc1ccc([N+](=O)[O-])cc1`, for which the TGI in the assay on 786-0 renal is > 100 µM; in the assay with SF-295 CNS, > 100 µM; with T-47D breast, 37.3 µM; in the assay with SN12C renal, > 100 µM; in the assay on KM12 colon it was 30.9 µM; in the assay with SF-268 CNS, 87.5 µM. For the same compound, the TGI in the assay on IGROV1 ovarian was 33.5 µM; in the assay with BT-549 breast, 64.5 µM; with UACC-257 melanoma, 46 µM; with SNB-19 CNS it was > 100 µM; in the assay on HCT-116 colon, 58 µM; in the assay with UACC-62 melanoma, 42.5 µM. Besides, the TGI in the assay with ACHN renal was > 100 µM; with CAKI-1 renal it was > 100 µM; in the assay on SR leukemia, 35.3 µM; in the assay with NCI-H23 lung, > 100 µM.
